From ChEMBL document CHEMBL4351003, “Selective Toll-like receptor 7 agonists with novel chromeno[3,4-d]imidazol-4(1H)-one and 2-(trifluoromethyl)quinoline/ quinazoline-4-amine scaffolds” (Eur J Med Chem, 2019) come the findings set out here.

A word on the pEC50: it is −log10 of the EC50, conventionally taken in molar units.

SMILES strings stand for the structures. pEC50: −log10 of the molar value. Calls of active or inactive are those of the source. The rule behind the calls is not given here.

Series [1] concerns PBMC. Kind of series: Induction of IL-8 production in human PBMC at 10 ug/ml incubated for 24 hrs by flow cytometry analysis. In kind it is functional, cell-based. Background: Flow cytometry measures light scatter and fluorescence of single cells or particles in a stream.
Series [2] relates to PBMC. As to the kind of experiment: Induction of TNFalpha production in human PBMC at 10 ug/ml incubated for 24 hrs by flow cytometry analysis. In kind it is functional, cell-based.
For series [3], the system named is PBMC. As to the kind of experiment: Induction of IL-12p70 production in human PBMC at 10 ug/ml incubated for 24 hrs by flow cytometry analysis. The format is functional, cell-based.
Series [4] has as its target T1, Toll-like receptor 7 (Homo sapiens, UniProt Q9NYK1).
T1 sequence (Q9NYK1 whole entry): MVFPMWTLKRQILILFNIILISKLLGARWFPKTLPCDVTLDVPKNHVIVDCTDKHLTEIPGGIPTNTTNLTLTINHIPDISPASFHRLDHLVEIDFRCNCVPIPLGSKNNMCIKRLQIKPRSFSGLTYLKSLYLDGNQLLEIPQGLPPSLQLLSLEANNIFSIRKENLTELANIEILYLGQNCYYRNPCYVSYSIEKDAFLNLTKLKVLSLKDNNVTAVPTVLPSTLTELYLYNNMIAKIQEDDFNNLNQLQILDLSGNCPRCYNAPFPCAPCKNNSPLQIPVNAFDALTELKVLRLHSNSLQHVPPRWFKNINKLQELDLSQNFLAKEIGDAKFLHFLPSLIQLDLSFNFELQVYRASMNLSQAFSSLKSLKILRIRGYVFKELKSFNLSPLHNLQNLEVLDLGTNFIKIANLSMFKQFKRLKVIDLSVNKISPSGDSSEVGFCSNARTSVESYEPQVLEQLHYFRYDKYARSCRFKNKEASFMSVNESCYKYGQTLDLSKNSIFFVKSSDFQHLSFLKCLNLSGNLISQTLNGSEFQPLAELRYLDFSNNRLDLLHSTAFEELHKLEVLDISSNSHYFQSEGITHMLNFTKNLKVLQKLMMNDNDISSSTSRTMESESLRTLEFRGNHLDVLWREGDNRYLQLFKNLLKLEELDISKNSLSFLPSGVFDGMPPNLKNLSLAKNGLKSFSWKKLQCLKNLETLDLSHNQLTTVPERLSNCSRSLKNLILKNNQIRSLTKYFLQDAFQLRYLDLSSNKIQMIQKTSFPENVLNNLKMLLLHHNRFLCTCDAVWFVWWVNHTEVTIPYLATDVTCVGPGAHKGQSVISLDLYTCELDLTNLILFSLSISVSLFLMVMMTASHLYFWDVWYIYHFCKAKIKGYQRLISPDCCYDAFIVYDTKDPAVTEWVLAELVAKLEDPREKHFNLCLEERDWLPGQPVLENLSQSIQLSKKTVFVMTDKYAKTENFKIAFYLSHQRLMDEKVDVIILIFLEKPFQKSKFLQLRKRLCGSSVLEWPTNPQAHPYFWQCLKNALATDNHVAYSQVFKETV
Kind of series: Agonist activity at human TLR7 in HEK293 cells cotransfected with SEAP reporter gene assessed as activity of SEAP incubated for 24 hrs by quanti-blue staining based SEAP reporter gene assay. The format is cell-based. The settings on record: for pEC50: read-out: EC50; for EC50: hek293. (In general: In a reporter assay the amount or activity of a reporter protein is the signal.)

The target of series [5] is T2, Toll-like receptor 8 (Homo sapiens) (UniProt Q9NR97).
T2 sequence (whole entry): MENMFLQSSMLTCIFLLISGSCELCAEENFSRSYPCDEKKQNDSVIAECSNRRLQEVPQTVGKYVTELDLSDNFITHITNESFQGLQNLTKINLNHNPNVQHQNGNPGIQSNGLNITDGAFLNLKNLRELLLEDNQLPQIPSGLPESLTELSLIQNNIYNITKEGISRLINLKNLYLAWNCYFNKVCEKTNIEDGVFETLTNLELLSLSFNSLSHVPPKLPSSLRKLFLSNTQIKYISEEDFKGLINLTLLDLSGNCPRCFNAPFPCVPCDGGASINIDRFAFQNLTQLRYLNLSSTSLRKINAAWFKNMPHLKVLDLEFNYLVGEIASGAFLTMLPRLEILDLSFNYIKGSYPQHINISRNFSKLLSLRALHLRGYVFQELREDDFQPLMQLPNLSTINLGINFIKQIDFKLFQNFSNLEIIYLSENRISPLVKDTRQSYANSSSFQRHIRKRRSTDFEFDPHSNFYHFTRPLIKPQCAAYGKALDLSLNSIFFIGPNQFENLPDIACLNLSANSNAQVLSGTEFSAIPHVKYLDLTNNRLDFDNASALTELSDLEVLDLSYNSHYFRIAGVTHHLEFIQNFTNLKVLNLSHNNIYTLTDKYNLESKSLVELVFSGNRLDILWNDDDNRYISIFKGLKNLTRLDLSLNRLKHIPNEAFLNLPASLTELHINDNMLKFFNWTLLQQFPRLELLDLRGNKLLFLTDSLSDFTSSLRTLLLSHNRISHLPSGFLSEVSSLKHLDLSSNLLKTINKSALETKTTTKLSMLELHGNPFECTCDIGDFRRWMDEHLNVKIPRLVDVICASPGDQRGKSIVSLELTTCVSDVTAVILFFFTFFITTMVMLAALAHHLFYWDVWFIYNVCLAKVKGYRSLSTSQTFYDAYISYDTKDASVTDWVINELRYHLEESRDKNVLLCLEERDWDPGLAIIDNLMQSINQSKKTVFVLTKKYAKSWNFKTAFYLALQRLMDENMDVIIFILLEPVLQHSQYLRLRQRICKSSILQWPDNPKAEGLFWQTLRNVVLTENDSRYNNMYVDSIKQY
Kind of series: Agonist activity at human TLR8 in HEK293 cells cotransfected with SEAP reporter gene assessed as activity of SEAP incubated for 24 hrs by quanti-blue staining based SEAP reporter gene assay. The format is cell-based.

Series [6] deals with T3, Toll-like receptor 7 (Homo sapiens) (UniProt Q9NYK1).
T3 sequence (whole entry): T1 sequence (Q9NYK1 whole entry)
Kind of series: Antagonist activity at human TLR7 in HEK293 cells cotransfected with SEAP reporter gene assessed as activity of SEAP preincubated for 2 hrs followed by imiquimod addition further incubated for 24 hrs by quanti-blue staining based SEAP reporter gene assay. In kind it is cell-based.

The nature of series [7]: Cytotoxicity against human HEK293 cells transfected with human TLR7/8 assessed as reduction in cell viability incubated for 24 hrs by MTS assay. Conditions: read-out: MNCC. The format is cell-based.

For the compound `CC(C)Cn1cnc2c(N)nc3ccccc3c21` [IMIQUIMOD], the result in series [1] was Active. Besides, the outcome in series [2] and in series [3] was inactive. Besides, the pEC50 in series [4] was 5.09 to 5.21.
As to `CC(C)Nc1nc(C(F)(F)F)nc2ccccc12`, the result in series [5] and in series [6] was inactive. Besides, the pEC50 in series [4] is 4.24. In series [7], the MNTC at 24 h was 62.5 µM.
As to `Nc1ccc(CNc2nc(C(F)(F)F)nc3ccccc23)cc1`, the EC50 entry in series [4] is “Not Active”. Besides, the MNTC at 24 h in series [7] turned out to be 15.6 µM.
Take `CC(C)CNc1nc(C(F)(F)F)nc2ccccc12`: the result in series [5] and in series [6] was inactive. For the same compound, the pEC50 in series [4] is 5.36. Moreover, in series [7], the MNTC at 24 h was in the range of 7.8 to 250 µM.
In the case of `CC(C)Cn1cnc2c(=O)oc3ccccc3c21`, the outcome in series [5] was inactive. In series [6], the outcome was Active.
On to `COCCCn1cnc2c(=O)oc3ccccc3c21`, for which the EC50 entry in series [4] is listed as “Not Active”. In series [7], the MNTC at 24 h was not below 250 µM.
For the compound `CC(C)n1cnc2c(=O)oc3ccccc3c21`, in series [4], the EC50 entry is recorded as “Not Active”. Besides, the MNTC at 24 h in series [7] was not below 250 µM.
As for `FC(F)(F)c1nc(NCC2CC2)c2ccccc2n1`, the result in series [5] and in series [6] was inactive. Besides, in series [4], the pEC50 was 4.82. The MNTC at 24 h in series [7] amounted to 31.3 µM.
`CC1CCCN(c2cc(C(F)(F)F)nc3ccccc23)C1` (stereo not drawn): the EC50 result in series [4] is “Not Active”. In series [7], the MNTC at 24 h was 31.3 µM.
Taken in the same sequence, the figures for `COCCn1cnc2c(=O)oc3ccccc3c21` were “Not Active” and not below 250 µM.
Taken in the same sequence, the figures for `COc1ccc2oc(=O)c3ncn(CC(C)C)c3c2c1` were “Not Active” and 62.5 µM.
For the compound `Oc1nc(C(F)(F)F)nc2ccccc12`, in series [4], the EC50 result is recorded as “Not Active”. Besides, in series [7], the MNTC at 24 h amounted to 62.5 µM.
Taken in the same sequence, the figures for `CCCn1cnc2c(=O)oc3ccccc3c21` were “Not Active” and not below 250 µM.
For the compound `FC(F)(F)c1nc(N2CCCC2)c2ccccc2n1`, the outcome in series [5] and in series [6] was inactive. Further, in series [4], the pEC50 is 4.81. Moreover, the MNTC at 24 h in series [7] amounted to 31.3 µM.
For `FC(F)(F)c1nc(NCCc2cnc[nH]2)c2ccccc2n1`, the EC50 result in series [4] is recorded as “Not Active”. Also, the MNTC at 24 h in series [7] was determined as 31.3 µM.
In the same order, the values of `Nc1nc(C(F)(F)F)nc2ccccc12` are “Not Active” and 62.5 µM.
`CCN(CC)c1ccc2c(c1)oc(=O)c1ncn(CC(C)C)c12`: the outcome in series [5] and in series [6] was inactive. Also, the pEC50 in series [4] was 4.52. The MNTC at 24 h in series [7] turned out to be 62.5 µM.
Consider `CC(C)Cn1cnc2c(=O)oc3ccc(F)cc3c21`, for which the EC50 entry in series [4] is reported as “Not Active”. The MNTC at 24 h in series [7] is not below 250 µM.
Regarding `CC(C)Cn1cnc2c(=O)oc3ccc([N+](=O)[O-])cc3c21`, the EC50 result in series [4] is “Not Active”. For the same compound, the MNTC at 24 h in series [7] stood at 62.5 µM.
Consider `CCn1cnc2c(=O)oc3ccc(F)cc3c21`, for which the EC50 result in series [4] is “Not Active”. For the same compound, the MNTC at 24 h in series [7] is not below 250 µM.
As to `FC(F)(F)c1nc(NC2CCN(C3CC3)CC2)c2ccccc2n1`, the outcome in series [5] and in series [6] was inactive. Besides, in series [4], the pEC50 was 4.18. Moreover, the MNTC at 24 h in series [7] was found to be 125 µM.
On to `CN1CCN(c2nc(C(F)(F)F)nc3ccccc23)CC1`, for which the EC50 result in series [4] is listed as “Not Active”. Moreover, the MNTC at 24 h in series [7] fell in the range of 7.8 to 250 µM.
`C=CCn1cnc2c(=O)oc3ccccc3c21`: the EC50 result in series [4] is “Not Active”. Moreover, the MNTC at 24 h in series [7] is not below 250 µM.
For the compound `FC(F)(F)c1nc(Cl)c2ccccc2n1`, the EC50 entry in series [4] is “Not Active”. Further, the MNTC at 24 h in series [7] was 31.3 µM.
For the compound `Cc1ccc2oc(=O)c3ncn(CC(C)C)c3c2c1`, the result in series [5] and in series [6] was inactive. Also, the pEC50 in series [4] was 3.27. Further, the MNTC at 24 h in series [7] is not below 250 µM.
For `OCCNc1nc(C(F)(F)F)nc2ccccc12`, the result in series [6] was inactive. In addition, the MNTC at 24 h in series [7] turned out to be 125 µM.
Take `FC(F)(F)c1nc(NCCN2CCCCC2)c2ccccc2n1`: the EC50 result in series [4] is listed as “Not Active”. In addition, the MNTC at 24 h in series [7] was found to be 62.5 µM.
Turning to `CCCCn1cnc2c(=O)oc3ccccc3c21`, the result in series [5] and in series [6] was inactive. Moreover, the pEC50 in series [4] was 3.97. Besides, the MNTC at 24 h in series [7] is not below 250 µM.
`FC(F)(F)c1nc(N2CCOCC2)c2ccccc2n1`: in series [4], the EC50 result is given as “Not Active”. Moreover, the MNTC at 24 h in series [7] was 125 µM.
Take `FC(F)(F)c1nc(NC2CCCC2)c2ccccc2n1`: the outcome in series [5] and in series [6] was inactive. Further, the pEC50 in series [4] was 4.96. For the same compound, in series [7], the MNTC at 24 h was 62.5 µM.
`CCCNc1nc(C(F)(F)F)nc2ccccc12`: the result in series [5] and in series [6] was inactive. Besides, the pEC50 in series [4] was 4.36. Besides, the MNTC at 24 h in series [7] came to 62.5 µM.
In the case of `CC(C)Cn1cnc2c(=O)oc3cc(O)ccc3c21`, the result in series [5] and in series [6] was inactive. In addition, in series [4], the pEC50 was 3.94. In addition, the MNTC at 24 h in series [7] was not below 250 µM.
For `CC1CCCN(c2nc(C(F)(F)F)nc3ccccc23)C1` (stereo not drawn), the outcome in series [5] and in series [6] was inactive. Besides, the pEC50 in series [4] was 5.40. Also, the MNTC at 24 h in series [7] is 62.5 µM.
As to `COc1ccc2c(c1)oc(=O)c1ncn(CC(C)C)c12`, the outcome in series [5] and in series [6] was inactive. Moreover, the pEC50 in series [4] is 3.55. Further, the MNTC at 24 h in series [7] is not below 250 µM.
On to `O=C(O)CNc1nc(C(F)(F)F)nc2ccccc12`, for which, in series [4], the EC50 result is recorded as “Not Active”. Moreover, the MNTC at 24 h in series [7] worked out at 31.3 µM.
